Legend:
[1] = test system: NCK2; assay: NCK2 phase separation with 1,6-hexanediol (Fig. S7C); type: biochemical, mouse; conditions: 0%, 5%, and 10% 1,6-hexanediol, 60 mM NaCl, n = 3
Protocol: (§1) Purified NCK2 proteins were diluted in GST buffer to identical concentrations. At 500 mM NaCl present in this buffer, all NCK2 constructs were completely soluble. Phase transition was initiated by dilution in imidazole buffer (10 mM imidazole (Bio Basic) pH 7.0, 1 mM DTT, 1 mM EGTA (Millipore Sigma), 1 mM MgCl2, 2.5% Glycerol (Bioshop Canada), 3% Dextran (Millipore Sigma)) containing various amount of NaCl so that the final concentration of NaCl would correspond to those in Supplementary Fig. 7B. For all the other experiments, the phase transition of NCK2 proteins was assessed at 60 mM NaCl. […] The pellets to supernatant fractions were used to quantify phase transition at 60 mM NaCl (7 replicates) via Coomassie protein quantification. The involvement of weak hydrophobic interactions in NCK2 driven phase transition was assessed using 1,6-Hexanediol (Millipore Sigma) at 60 mM NaCl. Imidazole buffer containing 0%, 1%, 5%, and 10% 1,6-Hexanediol was first prepared and phase transition was initiated and analyzed as described above. Finally, the competition of SH3-2 dependent homotypic NCK2 interaction with an SH3-2 binding peptide was assessed in the presence of 5, 15, 45, 90, 150, or 300 μM PAK1 peptide ([…]) in imidazole buffer with 60 mM NaCl. […]

[2] = test system: NCK2; assay: NCK2 phase separation with PAK1 peptide competition (Fig. S7A); type: biochemical, mouse; conditions: 5, 15, 45, 90, 150, or 300 μM peptide, 60 mM NaCl; phase contrast microscopy
Protocol: as §1

[3] = test system: NCK2 interactome in HEK293T cells; assay: AP-SWATH (DIA) quantitative MS of NCK2 PPIs (Fig. 5A-C); type: cell-based, human; conditions: SAINT FDR < 1%; duplicates
Protocol: Human embryonic kidney 293T cells (HEK293T, ATCC:CRL-3216) were grown in Dulbecco’s Modified Eagle’s medium (DMEM) high glucose complemented with 10% fetal calf serum under 5% CO2 at 37 °C. Transient expression of cDNA in cells was performed by polyethylenimine (PEI, Millipore Sigma) transfections. Enrichment of phospho-dependent PPIs was done by treating HEK293T cells with the tyrosine phosphatase inhibitor pervanadate, freshly made by mixing 4 mM orthovanadate (Millipore Sigma) with 30% H2O2 (Millipore Sigma) in water in a 200:1 volume ratio. […]
NCK2 baits purified on beads from HEK293T cells (as previously described in the methods) were washed two additional times in 20 mM Tris-HCl pH 7.4 and eluted in 50 mM phosphoric acid. […] These were analyzed alongside four negative controls corresponding to transiently expressed 3×FLAG-GFP purified from HEK293T cells (as described for NCK2 constructs). […] The equivalent of one-third of each sample was used for the SWATH-libraries generation and another third for SWATH quantification. […] We validated that the same quantity of baits was used for each NCK2 chimeras by quantifying NCK2 peptides in each sample (see Supplementary Data 3). […]

`OCCCCCCO` [1,6-hexanediol] was tested, and the “Effect on NCK2 phase separation” value [1] was “disrupts all NCK2 SH3-shuffled proteins in a similar manner”.

DIQDKPPAPPMRNTST [PAK1 peptide] was tested, and the “Effect on NCK2 phase separation” value [2] was “Phase separation is inhibited”.

With “WT NCK2: wild-type NCK2 adaptor (mouse cDNA) with three SH3s and one SH2” the “High confidence NCK2 PPIs” value [3] was 56 PPIs.
